The experiment deals with hNav1.4 (Homo sapiens, UniProt P35499). Briefly: cell-based. Particulars: for Nav1.4/Nav1.7: ratio of PX tonic IC50 values. Type of experiment: cell-based.
Chain of hNav1.4 (P35499 whole entry): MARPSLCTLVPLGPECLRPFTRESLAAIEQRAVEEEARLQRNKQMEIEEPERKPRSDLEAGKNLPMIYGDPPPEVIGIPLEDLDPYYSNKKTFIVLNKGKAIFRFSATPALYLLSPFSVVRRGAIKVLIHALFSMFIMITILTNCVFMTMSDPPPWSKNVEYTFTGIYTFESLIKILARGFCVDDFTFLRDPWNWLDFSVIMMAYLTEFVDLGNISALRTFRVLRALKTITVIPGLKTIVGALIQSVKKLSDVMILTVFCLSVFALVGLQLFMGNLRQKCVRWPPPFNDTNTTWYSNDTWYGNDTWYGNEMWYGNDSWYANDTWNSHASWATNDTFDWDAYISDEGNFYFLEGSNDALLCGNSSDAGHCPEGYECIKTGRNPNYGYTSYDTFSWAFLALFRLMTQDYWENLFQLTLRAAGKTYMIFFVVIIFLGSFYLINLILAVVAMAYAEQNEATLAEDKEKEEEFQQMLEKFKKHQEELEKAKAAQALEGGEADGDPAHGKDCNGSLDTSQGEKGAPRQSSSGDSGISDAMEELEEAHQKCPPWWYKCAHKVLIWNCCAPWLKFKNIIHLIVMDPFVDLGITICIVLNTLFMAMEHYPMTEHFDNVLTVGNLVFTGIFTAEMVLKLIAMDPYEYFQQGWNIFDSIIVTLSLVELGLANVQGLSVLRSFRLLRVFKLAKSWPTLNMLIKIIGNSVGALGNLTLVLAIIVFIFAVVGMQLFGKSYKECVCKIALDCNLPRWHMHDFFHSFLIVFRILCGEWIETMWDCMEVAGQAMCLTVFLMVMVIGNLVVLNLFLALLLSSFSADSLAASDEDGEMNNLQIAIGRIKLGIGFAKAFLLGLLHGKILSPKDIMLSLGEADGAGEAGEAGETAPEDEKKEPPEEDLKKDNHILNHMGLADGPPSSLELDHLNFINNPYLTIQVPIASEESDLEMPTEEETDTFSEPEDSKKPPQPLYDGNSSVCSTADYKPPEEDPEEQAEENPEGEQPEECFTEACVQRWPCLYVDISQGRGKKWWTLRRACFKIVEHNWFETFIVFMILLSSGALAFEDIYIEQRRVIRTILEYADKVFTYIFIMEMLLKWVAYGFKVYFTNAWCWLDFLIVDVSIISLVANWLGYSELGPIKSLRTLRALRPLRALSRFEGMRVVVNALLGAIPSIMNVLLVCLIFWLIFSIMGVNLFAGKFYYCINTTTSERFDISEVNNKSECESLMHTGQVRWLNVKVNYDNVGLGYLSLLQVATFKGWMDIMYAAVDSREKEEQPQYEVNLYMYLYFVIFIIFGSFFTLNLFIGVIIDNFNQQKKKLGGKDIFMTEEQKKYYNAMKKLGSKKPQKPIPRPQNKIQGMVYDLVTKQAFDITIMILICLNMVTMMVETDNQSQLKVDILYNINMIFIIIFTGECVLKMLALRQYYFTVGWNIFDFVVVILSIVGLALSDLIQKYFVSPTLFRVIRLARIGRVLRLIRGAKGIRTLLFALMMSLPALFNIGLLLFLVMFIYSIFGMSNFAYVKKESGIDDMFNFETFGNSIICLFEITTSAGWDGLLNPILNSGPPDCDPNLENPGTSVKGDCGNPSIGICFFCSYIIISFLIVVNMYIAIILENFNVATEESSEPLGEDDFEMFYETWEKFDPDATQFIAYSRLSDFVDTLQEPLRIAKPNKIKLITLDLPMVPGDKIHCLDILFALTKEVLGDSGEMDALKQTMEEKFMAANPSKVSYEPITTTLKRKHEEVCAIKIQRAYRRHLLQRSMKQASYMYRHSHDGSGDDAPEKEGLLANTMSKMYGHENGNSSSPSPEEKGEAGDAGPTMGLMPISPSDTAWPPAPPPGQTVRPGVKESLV

On to `C#CC[C@@H]1NC(=O)[C@@H]2CSSC[C@H](NC(=O)[C@H](Cc3ccc(O)cc3)NC(=O)[C@@H](N)CC#N)C(=O)N[C@@H](CCC(N)=O)C(=O)N[C@@H](CCCCN)C(=O)N[C@@H](Cc3c[nH]c4ccccc34)C(=O)N[C@@H](CCCC)C(=O)N[C@@H](Cc3c[nH]c4ccccc34)C(=O)N[C@@H]([C@@H](C)O)C(=O)N[C@H]3CSSC[C@H](NC(=O)[C@H](CCC(=O)O)NC(=O)[C@H](CC(C)C)NC(=O)CNC1=O)C(=O)N[C@@H](CCCCN)C(=O)N[C@@H](CC(C)C)C(=O)N[C@@H](Cc1c[nH]c4ccccc14)C(=O)N[C@H](C(=O)N[C@@H](CCCNC(=N)N)C(=O)N[C@@H](CCCCN)C(=O)N[C@@H](Cc1ccc(O)cc1)C(=O)N[C@H](C(N)=O)[C@@H](C)CC)CSSC[C@H](NC(=O)[C@H](C)NC(=O)[C@H](CCCNC(=N)N)NC(=O)[C@H](CCCCN)NC(=O)[C@H](CO)NC(=O)[C@H](CC(=O)O)NC3=O)C(=O)N2` [compound 397], for which the Nav1.4/Nav1.7 (Table 12) stood at 20. As for `CCCC[C@@H]1NC(=O)[C@H](Cc2c[nH]c3ccccc23)NC(=O)[C@H](CCCCN)NC(=O)[C@H](CCC(N)=O)NC(=O)[C@@H](NC(=O)[C@@H](N)Cc2ccc(O)cc2)CSSC[C@@H]2NC(=O)[C@@H]3CSSC[C@@H](C(=O)N[C@@H](CCCNC(=N)N)C(=O)N[C@@H](CCCCN)C(=O)N[C@@H](CCC(=O)O)C(=O)N[C@H](C(N)=O)[C@@H](C)CC)NC(=O)[C@H](Cc4c[nH]c5ccccc45)NC(=O)[C@H](CC(C)C)NC(=O)[C@H](CCCCN)NC(=O)[C@H](CSSC[C@H](NC(=O)[C@H]([C@@H](C)O)NC(=O)[C@H](Cc4c[nH]c5ccccc45)NC1=O)C(=O)N[C@@H](CC(=O)O)C(=O)N[C@@H](CO)C(=O)N[C@@H](CCCCN)C(=O)N[C@@H](CCCNC(=N)N)C(=O)N[C@@H](C)C(=O)N3)NC(=O)[C@H](CCCNC(=N)N)NC(=O)[C@H](CC(C)C)NC(=O)CNC(=O)[C@H](Cc1cn(CCCOCCOCCOCCOCCOCCOCCOCCOCCOCCOCCN)nn1)NC2=O` [compound 406], the Nav1.4/Nav1.7 (Table 13) is reported as 11. Still for that read-out and setting: next, `CCCC[C@@H]1NC(=O)[C@H](Cc2c[nH]c3ccccc23)NC(=O)[C@H](CCCCN)NC(=O)[C@H](CCC(N)=O)NC(=O)[C@@H](NC(=O)[C@@H](N)Cc2cn(CCCOCCOCCOCCOCCOCCOCCOCCOCCOCCOCCN)nn2)CSSC[C@@H]2NC(=O)[C@@H]3CSSC[C@@H](C(=O)N[C@@H](CCCNC(=N)N)C(=O)N[C@@H](CCCCN)C(=O)N[C@H](C(=O)N[C@H](C(N)=O)[C@@H](C)CC)[C@@H](C)CC)NC(=O)[C@H](Cc4c[nH]c5ccccc45)NC(=O)[C@H](CC(C)C)NC(=O)[C@H](CCCCN)NC(=O)[C@H](CSSC[C@H](NC(=O)[C@H]([C@@H](C)O)NC(=O)[C@H](Cc4c[nH]c5ccccc45)NC1=O)C(=O)N[C@@H](CC(=O)O)C(=O)N[C@@H](CO)C(=O)N[C@@H](CCCCN)C(=O)N[C@@H](CCCNC(=N)N)C(=O)N[C@@H](C)C(=O)N3)NC(=O)[C@H](CCC(=O)O)NC(=O)[C@H](CC(C)C)NC(=O)CNC(=O)[C@H](CCC(=O)O)NC2=O` [compound 407]: 85.

Turning to `C#CC[C@H](N)C(=O)NCCOCCOCCOCCOCCC(=O)NCCCC[C@@H]1NC(=O)[C@H](CCCNC(=N)N)NC(=O)[C@H](CCCCN)NC(=O)[C@H](CO)NC(=O)[C@H](CC(=O)O)NC(=O)[C@@H]2CSSC[C@@H]3NC(=O)[C@H](CCCNC(=N)N)NC(=O)[C@H](CC(C)C)NC(=O)CNC(=O)[C@H](CCC(=O)O)NC(=O)[C@H](CSSC[C@H](NC(=O)[C@H](Cc4ccc(O)cc4)NC(=O)[C@@H](N)CCC)C(=O)N[C@@H](CCC(N)=O)C(=O)N[C@@H](CCCCN)C(=O)N[C@@H](Cc4c[nH]c5ccccc45)C(=O)N[C@@H](CCCC)C(=O)N[C@@H](Cc4c[nH]c5ccccc45)C(=O)N[C@@H]([C@@H](C)O)C(=O)N2)NC(=O)[C@H](CSSC[C@@H](C(=O)N[C@@H](CCCNC(=N)N)C(=O)N[C@@H](CCCCN)C(=O)N[C@H](C(=O)N[C@H](C(N)=O)[C@@H](C)CC)[C@@H](C)CC)NC(=O)[C@H](Cc2c[nH]c4ccccc24)NC(=O)[C@H](CC(C)C)NC(=O)[C@H](CCCCN)NC3=O)NC1=O` [compound 432], the Nav1.4/Nav1.7 (Table 12) is 12. Still for that read-out and setting: next, `C#CC[C@H](N)C(=O)NCCCC[C@@H]1NC(=O)[C@H](CCCNC(=N)N)NC(=O)[C@H](CCCCN)NC(=O)[C@H](CO)NC(=O)[C@H](CC(=O)O)NC(=O)[C@@H]2CSSC[C@@H]3NC(=O)[C@H](CCCNC(=N)N)NC(=O)[C@H](CC(C)C)NC(=O)CNC(=O)[C@H](CCC(=O)O)NC(=O)[C@H](CSSC[C@H](NC(=O)[C@H](Cc4ccc(O)cc4)NC(=O)[C@@H](N)CCC)C(=O)N[C@@H](CCC(N)=O)C(=O)N[C@@H](CCCCN)C(=O)N[C@@H](Cc4c[nH]c5ccccc45)C(=O)N[C@@H](CCCC)C(=O)N[C@@H](Cc4c[nH]c5ccccc45)C(=O)N[C@@H]([C@@H](C)O)C(=O)N2)NC(=O)[C@H](CSSC[C@@H](C(=O)N[C@@H](CCCNC(=N)N)C(=O)N[C@@H](CCCCN)C(=O)N[C@@H](CCC(=O)O)C(=O)N[C@H](C(N)=O)[C@@H](C)CC)NC(=O)[C@H](Cc2c[nH]c4ccccc24)NC(=O)[C@H](CC(C)C)NC(=O)[C@H](CCCCN)NC3=O)NC1=O` [compound 435]: 99; `C#CC[C@H](N)C(=O)NCCCC[C@@H]1NC(=O)[C@H](CCCNC(=N)N)NC(=O)[C@H](CCCCN)NC(=O)[C@H](CO)NC(=O)[C@H](CC(=O)O)NC(=O)[C@@H]2CSSC[C@@H]3NC(=O)[C@H](CCCNC(=N)N)NC(=O)[C@H](CC(C)C)NC(=O)CNC(=O)[C@H](CCC(=O)O)NC(=O)[C@H](CSSC[C@H](NC(=O)[C@H](Cc4ccc(O)cc4)NC(=O)[C@@H](N)CCC)C(=O)N[C@@H](CCC(N)=O)C(=O)N[C@@H](CCCCN)C(=O)N[C@@H](Cc4c[nH]c5ccccc45)C(=O)N[C@@H](CC(C)C)C(=O)N[C@@H](Cc4c[nH]c5ccccc45)C(=O)N[C@@H]([C@@H](C)O)C(=O)N2)NC(=O)[C@H](CSSC[C@@H](C(=O)N[C@@H](CCCNC(=N)N)C(=O)N[C@@H](CCCCN)C(=O)N[C@H](C(=O)N[C@H](C(N)=O)[C@@H](C)CC)[C@@H](C)CC)NC(=O)[C@H](Cc2c[nH]c4ccccc24)NC(=O)[C@H](CC(C)C)NC(=O)[C@H](CCCCN)NC3=O)NC1=O` [compound 438]: 7. As to `C#CC[C@H](N)C(=O)NCCCC[C@@H]1NC(=O)[C@H](CCCNC(=N)N)NC(=O)[C@H](CCCCN)NC(=O)[C@H](CO)NC(=O)[C@H](CC(=O)O)NC(=O)[C@@H]2CSSC[C@@H]3NC(=O)[C@H](CCCNC(=N)N)NC(=O)[C@H](CC(C)C)NC(=O)CNC(=O)[C@H](CCC(=O)O)NC(=O)[C@H](CSSC[C@H](NC(=O)[C@H](Cc4ccc(O)cc4)NC(=O)[C@@H](N)CCC)C(=O)N[C@@H](CCC(N)=O)C(=O)N[C@@H](CCCCN)C(=O)N[C@@H](Cc4c[nH]c5ccccc45)C(=O)N[C@@H](CC(C)C)C(=O)N[C@@H](Cc4c[nH]c5ccccc45)C(=O)N[C@@H]([C@@H](C)O)C(=O)N2)NC(=O)[C@H](CSSC[C@@H](C(=O)N[C@@H](CCCNC(=N)N)C(=O)N[C@@H](CCCCN)C(=O)N[C@@H](CCC(=O)O)C(=O)N[C@H](C(N)=O)[C@@H](C)CC)NC(=O)[C@H](Cc2c[nH]c4ccccc24)NC(=O)[C@H](CC(C)C)NC(=O)[C@H](CCCCN)NC3=O)NC1=O` [compound 439], the 50% inhibitory concentration (IC50) (Table 12, PatchXpress, tonic block, read-out: PX hNav1.4 Tonic IC50) stood at 300 nM.

Values taken from patent US10344060B2 (priority 2013, dated 2019).
